Measured values reported in US10287641B2, “Lactobacillus apinorum and Lactobacillus mellifer from honeybees in medical, food and feed applications” (CONCELLAE AB, priority 2014, dated 2019).

Test system: clinical isolates of pathogenic wound bacteria and yeast
Assay: Dual culture overlay assays, whole pathogen panel and antibiotic controls
Assay type: cell-based
Conditions: antibiotic 30 μg; pathogen of each column not given
Method: Used pathogens (Table 2) were cultivated in Nutrient broth (Oxoid) at 37° C. during 24 hours prior to test in the antagonism assays.
Dual Culture Overlay Assay Antimicrobial activity was measured by using dual culture overlay assay. The Lactobacillus apinorum and Lactobacillus mellifer strains (Table 2) were put into a filter disk and placed onto supplemented MRS agar plates followed by overnight incubation at 35° C.

SMILES | diameter of the inhibition zone, antibiotic control
O=C(N[C@H](CO)[C@H](O)c1ccc([N+](=O)[O-])cc1)C(Cl)Cl [Cl, Chloramphenicol] | ^S19 millimetres
CO/N=C(\C(=O)N[C@@H]1C(=O)N2C(C(=O)O)=C(COC(N)=O)CS[C@H]12)c1ccco1 [Cx, Cefuroxime sodium] | 28 millimetres
